In brackets after ≈: the same amount, converted by molar mass. Where two headings read alike, the source gives them in different places.
Columns and labels:
[1] = target: T1, S. aureus FabI (Staphylococcus aureus, UniProt Q6GI75); experiment: S. aureus FabI enzyme assay (NADPH use at 340 nm, t-o-NAC thioester substrate); format: biochemical
T1 construct: made in house
T1 sequence (Q6GI75 1-256): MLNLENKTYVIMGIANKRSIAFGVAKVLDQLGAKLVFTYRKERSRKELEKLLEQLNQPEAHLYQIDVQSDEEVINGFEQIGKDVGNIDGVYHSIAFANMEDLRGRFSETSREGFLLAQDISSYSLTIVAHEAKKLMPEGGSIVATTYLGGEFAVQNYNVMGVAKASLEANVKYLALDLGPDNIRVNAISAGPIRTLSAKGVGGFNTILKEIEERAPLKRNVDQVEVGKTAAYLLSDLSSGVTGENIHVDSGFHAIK
From the text: S. aureus FabI and E. coli FabI enzymes were cloned, overexpressed, and purified as described previously. The wild-type fabK gene was amplified by PCR from genomic DNA obtained from Streptococcus pneumoniae KCTC 5412 by using the primers 5′-[…]-3′ and 5′-[…]-3′, which contained NdeI and XhoI restriction sites, respectively. After the DNA sequence was confirmed, the gene was cloned into the pET22b vector (Novagen, Gibbstown, NJ, USA). The construct was transformed into E. coli BL21 (DE3) for expression following induction with isopropylthiogalactoside. The C-terminal His-tagged protein was purified as described previously. Assays were conducted in half-area, 96-well microtiter plates. The compounds were dissolved in DMSO and evaluated in 100-μL assay mixtures containing components specific for each enzyme (see below). Reduction of the trans-2-octenoyl N-acetylcysteamine (t-o-NAC thioester) substrate analog was measured spectrophotometrically following the utilization of NADH or NADPH at 340 nm at 30°C for the linear period of the assay. S. aureus FabI assays contained 50 mM sodium acetate (pH 6.5), 200 μM t-o-NAC thioester, 200 μM NADPH, and 150 nM S. aureus FabI.
NADH was used as a cofactor rather than NADPH for the E. coli FabI assay. Substrate concentrations used for the Lineweaver–Burk plot were 100, 200, 300, and 400 μM, whereas the concentrations of the cofactor were 100, 200, 400, and 600 μM. The rate of decrease in the amount of NADPH in each reaction was measured with a microtiter enzyme-linked immunosorbent assay (ELISA) reader by using the SOFTmax PRO software (Molecular Devices, Sunnyvale, CA, USA). The inhibitory activity was calculated according to the following formula: % of inhibition = 100× [1− (rate in the presence of compound/rate in the untreated control)]. IC50 values were calculated by fitting the data to a sigmoid equation. An equal volume of DMSO solvent was used for the untreated control. FabK assays contained 100 mM sodium acetate (pH 6.5), 2% glycerol, 200 mM NH4Cl, 50 µM t-o-NAC thioester, 200 µM NADH, and 150 nM S. pneumoniae FabK.

[2] = test system: E. coli KCTC 1924; experiment: MIC by broth microdilution, E. coli KCTC 1924; format: cell-based; settings: Escherichia coli
Method: (§1) Whole-cell antimicrobial activity was determined by broth microdilution as described previously. The test strains except for S. pneumoniae were grown to mid-log phase in Mueller–Hinton broth and diluted 1,000-fold in the same medium. Cells (10^5/mL) were inoculated into Mueller–Hinton broth and dispensed at 0.2 mL/well into a 96-well microtiter plate. S. pneumoniae was grown in tryptic soy broth supplemented with 5% sheep blood. MICs were determined in triplicate by serial 2-fold dilutions of test compounds. […] Bacterial growth was determined by measuring the absorption at 650 nm by using a microtiter ELISA reader.

[3] = test system: S. pneumoniae KCTC 3932; experiment: MIC by broth microdilution, S. pneumoniae KCTC 3932; format: cell-based; settings: Streptococcus pneumoniae
Method: as §1

[4] = test system: incorporation of [1-14C] acetate into membrane fatty acids in S. aureus; experiment: [14C] acetate incorporation into membrane fatty acids in S. aureus; format: cell-based, Staphylococcus aureus; settings: for IC50: Staphylococcus aureus, read-out: IC50 [14C] acetate incorporation; for Inhibition of acetate incorporation relative to the less active compounds 1, 3, and 4: [1-14C] acetate into membrane fatty acids in S. aureus
Method: To monitor the effects of compound 1 on lipid, DNA, RNA, protein, and cell wall biosynthesis, its effects on the incorporation of [1-^14C] acetate (50 mCi/mmol), [2-^14C] thymidine (59.8 mCi/mmol), [U-^14C] uridine (539 mCi/mmol), L-[U-^14C] leucine (306 mCi/mmol) or L-[U-^14C] isoleucine (329 mCi/mmol), and N-acetyl-D-[1-^14C] glucosamine (58.1 mCi/mmol) into S. aureus and S. pneumoniae were measured as described previously. S. aureus was exponentially grown to an A650 of 0.2 in Mueller–Hinton broth. S. pneumoniae was grown in tryptic soy broth supplemented with 5% sheep blood. […] An equal volume of DMSO solvent was added to the untreated control. After incubation with the radiolabeled precursors at 37°C for 1 h, followed by centrifugation, the cell pellets were washed twice with PBS buffer. After acetate incorporation, the total cellular lipids were extracted with chloroform-methanol-water. The incorporated radioactivity in the chloroform phase was measured by scintillation counting. For the other precursors, incorporation was terminated by adding 10% (w/v) TCA and cooling on ice for 20 min. The precipitated material was collected on Whatman GF/C glass microfiber filters, washed with TCA and ethanol, dried, and counted using a scintillation counter. […] In all experiments, known antibacterial agents were included as positive controls.
We measured their effects on the incorporation of [1-^14C] acetate into membrane fatty acids in S. aureus.

[5] = test system: S. aureus RN4220 (pE194); experiment: Overexpression assay, MIC for vector-containing S. aureus RN4220 (pE194); format: cell-based; settings: Staphylococcus aureus, read-out: MIC S. aureus (pE194)
Method: as §1
(§2) An overexpression assay using S. aureus RN4220, S. aureus RN4220 (pE194), and S. aureus RN4220 (pE194-fabI) was conducted to perform target validation of FabI inhibitors as described previously. Additionally, both fabI- and fabK-overexpressing E. coli were constructed to test a multitarget effect of the compounds. The wild-type fabI gene from the genomic DNA of E. coli W3110 was amplified by PCR by using the primers 5′-[…]-3′ and 5′-[…]-3′. The wild-type fabK gene from the genomic DNA of S. pneumoniae KCTC 5412 was amplified by PCR by using the primers 5′-[…]-3′ and 5′-[…] […]-3′. The resulting products were cloned into the pBAD-TOPO TA expression vector (Invitrogen, Carlsbad, CA, USA) to yield the pBAD-fabI and pBAD-fabK recombinant plasmids, which placed the expression of the genes fabI and fabK, respectively, under the control of the arabinose promoter. Recombinant pBAD-fabI and pBAD-fabK were then introduced into the pump-negative (tolC) E. coli EW1b via electroporation to generate E. coli EW1b (pBAD-fabI) and E. coli EW1b (pBAD-fabK), respectively.

[6] = test system: S. aureus RN4220 (pE194-fabI); experiment: Overexpression assay, MIC for fabI-overexpressing S. aureus RN4220 (pE194-fabI); format: cell-based; settings: Staphylococcus aureus, read-out: MIC S. aureus (pE194-fabI)
Method: as §1, §2

[7] = test system: S. aureus KCTC 1916; experiment: MIC, S. aureus KCTC 1916; format: cell-based; settings: Staphylococcus aureus, KCTC1916
Method: as §1

[8] = KCTC1924, read-out: MIC E. coli
[9] = KCTC3932, read-out: MIC S. pneumoniae
[10] = KCTC1924, E. coli KCTC 1924, read-out: MIC E. coli
[11] = KCTC3932, S. pneumoniae KCTC 3932, read-out: MIC S. pneumoniae
[12] = with respect to trans-2-octenoyl N-acetylcysteamine
[13] = S. aureus FabI, read-out: IC50 saFabI

Compound | IC50 [1] [µM] | MIC [2, 8] [µg/mL] | MIC [3, 9] [µg/mL] | IC50 [4] [µM] | MIC [5] [µg/mL] | MIC [6] [µg/mL] | MIC [2, 10] [µg/mL] | MIC [3, 11] [µg/mL] | Ki ([1]; with respect to NADPH) [µM] | Ki [1, 12] [µM] | Mode of FabI inhibition ([1]; with respect to NADPH) | Mode of FabI inhibition [1, 12] | MIC [7] [µg/mL] | IC50 [1, 13] [µM] | Inhibition of acetate incorporation relative to the less active compounds 1, 3, and 4 [4] | MIC ([7]; S. aureus KCTC 1916, read-out: MIC) [µg/mL] | MIC ([2]; KCTC1924, 24 h, read-out: MIC E. coli) [µg/mL]
C=CC(C)(C)C12C=C(O)C(=O)N3/C(=C/c4cnc[nH]4)C(=O)N(C)C31N(OC)c1ccccc12 (stereo not shown) [Compound 4, N^14-methylmeleagrin] | 48 | 32 (≈ 71.5 µM) | 64 (≈ 143 µM) | 35.7 | 64 (≈ 143 µM) | 256 (≈ 572 µM) |  |  |  |  |  |  |  |  |  |  | 
C=CC(C)(C)C12C=C(OC)C(=O)N3/C(=C/c4cnc[nH]4)C(=O)NC31N(OC)c1ccccc12 (stereo not shown) [Compound 3, oxaline] | 38.7 |  |  | 33.5 | 64 (≈ 143 µM) | 256 (≈ 572 µM) | 32 (≈ 71.5 µM) | 64 (≈ 143 µM) |  |  |  |  |  |  |  |  | 
C=CC(C)(C)C12C=C(O)C(=O)N3/C(=C/c4cnc[nH]4)C(=O)NC31N(OC)c1ccccc12 (stereo not shown) [Compound 1, meleagrin] | 40.1 | 32 (≈ 73.8 µM) | 64 (≈ 148 µM) | 40.3 | 64 (≈ 148 µM) | 256 (≈ 591 µM) |  |  | 32.3 | 39.8 | mixed inhibition | mixed | 32 (≈ 73.8 µM) |  |  |  | 
C=CC(C)(C)C12C=C(OC)C(=O)N3/C(=C/c4cnc[nH]4)C(=O)N(C)C31N(OC)c1ccccc12 (stereo not shown) [Compound 5, O,N^14-dimethylmeleagrin] |  |  |  | 16.3 | 16 (≈ 34.7 µM) | 128 (≈ 277 µM) | 8 (≈ 17.3 µM) | 16 (≈ 34.7 µM) |  |  |  |  |  | 13.5 | approximately 2 fold | 16 (≈ 34.7 µM) | 
C=CC(C)(C)C12C=C(O)C(=O)N3/C(=C/c4cnc[nH]4)C(=O)NC31Nc1c(Br)cccc12 (stereo not shown) [Compound 7] |  |  |  | > 200 |  |  | > 128 | > 128 |  |  |  |  |  | > 200 |  |  | 
Oc1cc(Cl)ccc1Oc1ccc(Cl)cc1Cl [Triclosan, reference compound] |  | 0.01 (≈ 0.0345 µM) | 64 (≈ 221 µM) | 0.04 | 0.01 (≈ 0.0345 µM) | 1.6 (≈ 5.53 µM) |  |  |  |  |  |  | 0.01 (≈ 0.0345 µM) |  |  |  | 0.02 (≈ 0.0691 µM)
C=CC(C)(C)C12C=C(OC)C(=O)N3/C(=C/c4cnc[nH]4)C(=O)N(C)C31Nc1ccccc12 (stereo not shown) [Compound 6, O,N^14-dimethylglandicolin] | 13.1 | 8 (≈ 18.5 µM) | 16 (≈ 37.1 µM) | 19.8 | 16 (≈ 37.1 µM) | 128 (≈ 297 µM) |  |  |  |  |  |  |  |  | approximately 2 fold |  | 

Source: publication PMC3842914, “Meleagrin, a New FabI Inhibitor from Penicillium chryosogenum with at Least One Additional Mode of Action” (PLoS ONE, 2013)
